In brackets after ≈: the same amount, converted by molar mass. Read-outs that look alike come from different tables or passages of the source. Some results are limits rather than exact numbers.

Assay [1] addresses Human Serum Albumin (Homo sapiens, UniProt P02768). Kind of assay: Binding fluorimetric assay (tryptophan quenching). Conditions: fixed concentration of HSA titrated with different amounts of compound. The method, then: The solutions were mixed and after allowing 30 minutes at room temperature to reach the equilibrium conditions, the spectra were recorded. […] The percentages obtained were plotted against the concentrations used and the KD values were calculated using GraphPad software (version 5.0).

The subject of assay [2] is Alcaligenes faecalis 424/98. Kind of assay: Antimicrobial susceptibility testing, MIC by microdilution broth method. It is filed as cell-based. The following applies: Mueller-Hinton broth, 18-24 hours at 35-37° C. As to the method: (§1) Bacterial strains were obtained from the ATCC or CCUG culture collections or present in the authors' collection of clinical isolates. Compounds were re-suspended in dimethyl sulfoxyde (DMSO) at a final concentration of 10 mg/ml and subsequently diluted in the culture medium. The minimum inhibitory concentrations (MICs) of the compounds of the invention were determined using the microdilution broth method using Mueller-Hinton broth as recommended by the Clinical Laboratory Standards Institute (CLSI [11]). Bacterial inoculum was 5×10^4 CFU/well. MICs were recorded after 18-24 hours incubation at 35-37° C.
A general note: In broth dilution the organism is exposed to a series of concentrations in liquid medium.

Assay [3] relates to Chryseobacterium meningosepticum CCUG 4310. The description is as above. Type of assay: cell-based. The following applies: 18-24 hours at 35-37° C. As to the method: as §1
The subject of assay [4] is Klebsiella pneumoniae ATCC 13833. The assay is described as above. It is filed as cell-based. The following applies: 18-24 hours at 35-37° C. The method, then: as §1
In assay [5] the test system is Enterococcus faecalis ATCC 19433. The assay is described as above. It is filed as cell-based. The following applies: 18-24 hours at 35-37° C. As to the method: as §1
Assay [6] has as its system Burkholderia cepacia RII. The assay is described as above. It is filed as cell-based. The following applies: Mueller-Hinton broth, 18-24 hours at 35-37° C. As to the method:
as §1

The test system of assay [7] is Bacillus subtilis ATCC 6633. Described as above. It is filed as cell-based. Conditions: 18-24 hours at 35-37° C. As to the method:
as §1

Assay [8] concerns Pseudomonas aeruginosa ATCC 27853. The assay is described as above. Type of assay: cell-based. Conditions: 18-24 hours at 35-37° C. The method, then:
as §1

Assay [9] has as its system Stenotrophomonas maltophilia 634/08. The description is as above. Type of assay: cell-based. The following applies: Mueller-Hinton broth, 18-24 hours at 35-37° C. As to the method: as §1
The test system of assay [10] is Acinetobacter baumannii ATCC 17978. The assay is described as above. It is filed as cell-based. Conditions: 18-24 hours at 35-37° C. The method, then:
as §1

Assay [11] deals with Staphylococcus aureus ATCC 25923. The assay is described as above. Conditions: 18-24 hours at 35-37° C. It is filed as cell-based. As to the method: as §1
The test system of assay [12] is Achromobacter xylosoxidans AX 22. Described as above. Type of assay: cell-based. The following applies: 18-24 hours at 35-37° C. The method, then: as §1
In assay [13] the test system is Escherichia coli CCUG^T. The description is as above. Type of assay: cell-based. Conditions: Mueller-Hinton broth, 18-24 hours at 35-37° C. The method, then: as §1
Assay [14] concerns Acinetobacter baumannii AC-54/97 (IMP-2). The description is as above. Conditions: Acinetobacter baumannii AC-54/97 (IMP-2), Tables 2 and 3. It is filed as cell-based. As to the method:
as §1
(§2) The Antibacterial activity of compound 28 was also tested on a panel of Gram-negative and Gram-positive clinical isolates, showing various antimicrobial susceptibility profiles (Table 4). The class of drugs for which the isolate was resistant to is indicated in column 2 (PEN, penicillins; ES-CEPH, expanded-spectrum cephalosporins; CARB, carbapenems; AZT; aztreonam; AG, aminoglycosides; FQ, fluoroquinolones; SXT, trimethoprim/sulfamethoxazole; FOS, fosfomycin; GLY, glycopeptides; LNZ, linezolid; COL-R, colistin resistant; COL-S colistin sensitive; PDR, poly-drug resistant).

Assay [15] concerns Gram-positive and Gram-negative organisms. Kind of assay: Antimicrobial susceptibility testing, overall statements on the panel. Type of assay: cell-based. The following applies: overall comparison over the tested strains. The method, then: as §1
The subject of assay [16] is Klebsiella pneumoniae 081R. Kind of assay: Antimicrobial susceptibility testing, MIC by microdilution broth method. Type of assay: cell-based. The following applies: Tables 2 and 3. As to the method: as §1, §2
Assay [17] has as its system Enterobacter cloacae VA-417/02 (VIM-4). Described as above. Type of assay: cell-based. The following applies: Enterobacter cloacae VA-417/02 (VIM-4); Tables 2 and 3. The method, then:
as §1, §2

The mark [18] stands for this setting: Elizabethkingia meningoseptica, CCUG4310, Mueller-Hinton broth, read-out: MIC.
Where [19] appears, read: ATCC13833, Mueller-Hinton broth, read-out: MIC.
The mark [20] stands for this setting: ATCC19433, Mueller-Hinton broth, read-out: MIC.
The mark [21] stands for this setting: ATCC6633, Mueller-Hinton broth, read-out: MIC.
The mark [22] stands for this setting: ATCC27853, Mueller-Hinton broth, read-out: MIC.
Setting [23] is: ATCC17978, Mueller-Hinton broth, read-out: MIC.
The mark [24] stands for this setting: ATCC25923, Mueller-Hinton broth, read-out: MIC.
The mark [25] stands for this setting: AX22, Mueller-Hinton broth, read-out: MIC.

Sequence of Human Serum Albumin (P02768 25-609): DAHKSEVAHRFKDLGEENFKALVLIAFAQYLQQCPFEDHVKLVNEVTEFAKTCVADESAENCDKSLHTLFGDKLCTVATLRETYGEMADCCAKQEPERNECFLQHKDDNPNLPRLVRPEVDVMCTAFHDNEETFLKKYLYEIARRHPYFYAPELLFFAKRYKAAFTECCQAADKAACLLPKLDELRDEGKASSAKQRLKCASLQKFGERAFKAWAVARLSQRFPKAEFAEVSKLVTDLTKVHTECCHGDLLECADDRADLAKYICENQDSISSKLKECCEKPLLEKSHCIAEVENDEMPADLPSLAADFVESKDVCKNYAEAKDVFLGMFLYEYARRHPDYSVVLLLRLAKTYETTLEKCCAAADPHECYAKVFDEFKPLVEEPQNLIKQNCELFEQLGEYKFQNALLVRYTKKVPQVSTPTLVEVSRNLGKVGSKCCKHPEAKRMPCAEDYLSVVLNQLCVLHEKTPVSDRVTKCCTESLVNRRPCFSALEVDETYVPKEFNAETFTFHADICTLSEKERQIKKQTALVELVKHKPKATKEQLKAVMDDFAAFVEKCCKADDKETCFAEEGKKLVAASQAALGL

Regarding `NC(=O)N1c2ccccc2C=Cc2ccccc21` [CARBAMAZEPINE, Carbamazepine, reference compound], the “intrinsic fluorescence decrease of HSA” value in assay [1] was “remarkable intrinsic fluorescence decrease”.
As for `N=C(N)NCCCCCCCCN(CCCCCCCCNC(=N)NCC1CC1)C(=O)NC(=N)NCCCCCCCCNCCCCCCCCNC(=N)NCC1CC1` [Compound 30, 1-(8-carbamimidamidooctyl)-1-[8-[[N-(cyclopropylmethyl)carbamimidoyl]amino]octyl]-3-[N-[8-[8-[[N-(cyclopropylmethyl)carbamimidoyl]amino]octylamino]octyl]carbamimidoyl]urea], the MIC (in general, the lowest concentration found to suppress growth) in [2] (read-out: MIC) was 32 µg/mL (≈ 37.9 µM); in assay [3] (setting [18]), above 256 µg/mL; in assay [4] (setting [19]), above 256 µg/mL; in [5] (setting [20]), 8 µg/mL (≈ 9.46 µM); in assay [6] (read-out: MIC), 128 µg/mL (≈ 151 µM); in assay [7] (setting [21]) it was below 0.125 µg/mL. For the same compound, the MIC was above 256 µg/mL in assay [8] (setting [22]); above 256 µg/mL in assay [9] (read-out: MIC); above 256 µg/mL in [10] (setting [23]); 4 µg/mL (≈ 4.73 µM) in assay [11] (setting [24]); above 256 µg/mL in assay [12] (setting [25]); above 256 µg/mL in [13] (read-out: MIC). Moreover, the MIC in assay [14] (Acinetobacter baumannii, read-out: MIC) is 32 µg/mL (≈ 37.9 µM).
For `N=C(N)NCCCCCCN(CCCCCCNC(=N)NCC1CC1)C(=O)N(CCCCCCNC(=N)N)CCCCCCNC(=N)NCC1CC1` [Compound 31, 1,3-bis(6-(3-(cyclopropylmethyl)guanidino)hexyl)-1,3-bis(6-guanidinohexyl)urea], the MIC in [2] (read-out: MIC) was above 256 µg/mL; in [3] (setting [18]), above 256 µg/mL; in [4] (setting [19]) it was 32 µg/mL (≈ 43.6 µM); in [5] (setting [20]), 32 µg/mL (≈ 43.6 µM); in assay [6] (read-out: MIC) it was above 256 µg/mL; in assay [7] (setting [21]) it was 4 µg/mL (≈ 5.46 µM). For the same compound, the MIC was 256 µg/mL (≈ 349 µM) in assay [8] (setting [22]); above 256 µg/mL in assay [9] (read-out: MIC); 128 µg/mL (≈ 175 µM) in assay [10] (setting [23]); 4 µg/mL (≈ 5.46 µM) in assay [11] (setting [24]); above 256 µg/mL in assay [12] (setting [25]); 16 µg/mL (≈ 21.8 µM) in assay [13] (read-out: MIC).
Consider `N=C(N)NCCCCCCCCN(CCCCCCCCNC(=N)NCC1CC1)C(=O)N(CCCCCCCCNC(=N)NCC1CC1)CCCCCCCCNC(=N)NC(=O)NCCCCCCCCNCCCCCCCCNC(=N)NCC1CC1` [Compound 32, 1,3-bis(8-(3-(cyclopropylmethyl)guanidino)octyl)-1-(8-guanidinooctyl)-3-(8-((3-(8-((8-(3-(cyclopropylmethyl))guanidinooctyl)amino)octyl)carbamoyl)guanidino)octyl)urea], for which the “antimicrobial spectrum (in words)” value in assay [15] is “active against both Gram-positive and Gram-negative organisms”. Moreover, the MIC was 32 µg/mL (≈ 25.8 µM) in [2]; 64 µg/mL (≈ 51.7 µM) in [3] (Mueller-Hinton broth); 8 µg/mL (≈ 6.46 µM) in [4] (Mueller-Hinton broth); below 0.125 µg/mL in [5] (Mueller-Hinton broth); 128 µg/mL (≈ 103 µM) in assay [6]; 8 µg/mL (≈ 6.46 µM) in [7] (Mueller-Hinton broth). The MIC came out at 32 µg/mL (≈ 25.8 µM) in [8] (Mueller-Hinton broth); 64 µg/mL (≈ 51.7 µM) in [9]; 32 µg/mL (≈ 25.8 µM) in assay [10] (Mueller-Hinton broth); 8 µg/mL (≈ 6.46 µM) in assay [11] (Mueller-Hinton broth); 64 µg/mL (≈ 51.7 µM) in assay [12] (Mueller-Hinton broth); 8 µg/mL (≈ 6.46 µM) in assay [13]. The MIC in assay [14], in [16] and in assay [17] was 16 µg/mL (≈ 12.9 µM) each time.
As to `N=C(N)NCCCCCCN(CCCCCCNC(=N)NCC1CC1)C(=O)NC(=N)NCCCCCCNCCCCCCNC(=N)NCC1CC1` [Compound 33, 1-(6-carbamimidamidohexyl)-1-[6-[[N-(cyclopropylmethyl)carbamimidoyl]amino]hexyl]-3-[N-[6-[6-[[N (cyclopropylmethyl)carbamimidoyl]amino]hexylamino]hexyl]carbamimidoyl]urea], the MIC was above 256 µg/mL in [2]; above 256 µg/mL in assay [3] (Mueller-Hinton broth); 64 µg/mL (≈ 87.3 µM) in assay [4] (Mueller-Hinton broth); 32 µg/mL (≈ 43.6 µM) in assay [5] (Mueller-Hinton broth); above 256 µg/mL in assay [6]; 8 µg/mL (≈ 10.9 µM) in [7] (Mueller-Hinton broth). Also, the MIC in assay [8] (Mueller-Hinton broth) was above 256 µg/mL; in assay [9] it was above 256 µg/mL; in assay [10] (Mueller-Hinton broth) it was 256 µg/mL (≈ 349 µM); in assay [11] (Mueller-Hinton broth) it was 16 µg/mL (≈ 21.8 µM); in assay [12] (Mueller-Hinton broth), above 256 µg/mL; in assay [13], 32 µg/mL (≈ 43.6 µM). Moreover, the values for the MIC in [14] and in assay [17] were 8 µg/mL (≈ 10.9 µM) and 64 µg/mL (≈ 87.3 µM), respectively.

For the origin of these results see patent US10004702B2, “Linear guanidine derivatives, methods of preparation and uses thereof” (LEAD DISCOVERY SIENA S.R.L., priority 2014, dated 2018).
